Activity calls are given as the source filed them. The calls are words filed in the database; no cut-off is given here.
What was measured:
[1] = target: T1, Delta-type opioid receptor (Homo sapiens, UniProt P41143); assay: Displacement of [125I]deltorphin 2 from human recombinant delta opioid receptor expressed in HEK cells at 100 uM; format: cell-based; conditions: HEK293
[2] = target: T1, Delta-type opioid receptor; assay: biochemical

T1 sequence (P41143 whole entry): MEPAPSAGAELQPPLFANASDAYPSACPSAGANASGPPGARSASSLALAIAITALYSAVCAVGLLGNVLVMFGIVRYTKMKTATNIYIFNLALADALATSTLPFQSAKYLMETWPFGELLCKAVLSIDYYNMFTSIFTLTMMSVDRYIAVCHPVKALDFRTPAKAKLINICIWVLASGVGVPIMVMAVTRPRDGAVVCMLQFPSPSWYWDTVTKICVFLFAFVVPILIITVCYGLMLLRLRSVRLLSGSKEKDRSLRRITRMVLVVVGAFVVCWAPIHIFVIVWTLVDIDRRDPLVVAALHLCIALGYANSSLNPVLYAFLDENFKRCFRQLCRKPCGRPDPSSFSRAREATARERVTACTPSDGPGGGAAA

Structure (SMILES)	Activity [1]	IC50 [2] [µM]
CCCCCC(=O)NCCC[N+]12CCC[C@@H]1CC1=C(C(=O)CC(C)O1)[C@H]2C (stereo partly drawn)	inactive	
CCCCCC(=O)NCCCN1CCCC1CC(=O)c1c(C)cccc1O (stereo not drawn) [PERIPENTADENINE]		11.4
CCCCCC(=O)NCCCN1CCC[C@H]1CC(=O)O [PERIPENTONINE C]		30.9

Source: ChEMBL document CHEMBL1141430, “Alkaloids with human delta-opioid receptor binding affinity from the Australian rainforest tree Peripentadenia mearsii” (J Nat Prod, 2007)
